Measured values as given in ChEMBL document CHEMBL2021793, “Synthesis, biological evaluation and structure-activity relationships of glycyrrhetinic acid derivatives as novel anti-hepatitis B virus agents” (Bioorg Med Chem Lett, 2012).

Experiments:
[1] = Cytotoxicity against human HepG2(2.2.15) cells; type: cell-based
Hepatitis B virus [2] = test: Antiviral activity against Hepatitis B virus infected in human HepG2(2.2.15) cells assessed as reduction in hepatitis B e-antigen release; type: functional, organism-based
[3] = Selectivity index, ratio of CC50 for human HepG2(2.2.15) cells to IC50 for HBV by hepatitis B surface antigen release detection assay; type: functional
Hepatitis B virus [4] = test: Antiviral activity against Hepatitis B virus infected in human HepG2(2.2.15) cells assessed as reduction in hepatitis B surface antigen release; type: functional, organism-based
[5] = Selectivity index, ratio of CC50 for human HepG2(2.2.15) cells to IC50 for HBV by viral DNA replication detection assay; type: functional
Hepatitis B virus [6] = test: Antiviral activity against Hepatitis B virus infected in human HepG2(2.2.15) cells assessed as reduction in viral DNA replication; type: functional, organism-based
[7] = Selectivity index, ratio of CC50 for human HepG2(2.2.15) cells to IC50 for HBV by hepatitis B e-antigen release detection assay; type: functional

| SMILES | CC50 [1] [µM] | IC50 (Hepatitis B virus [2]) [µM] | Ratio CC50/IC50 [3] | IC50 (Hepatitis B virus [4]) [µM] | Ratio CC50/IC50 [5] | IC50 (Hepatitis B virus [6]) [µM] | Ratio CC50/IC50 [7] |
| --- | --- | --- | --- | --- | --- | --- | --- |
| CC1(C)[C@@H](O)CC[C@]2(C)[C@H]3C(=O)C=C4[C@@H]5C[C@@](C)(C(=O)OCCOc6ccccc6)CC[C@]5(C)CC[C@@]4(C)[C@]3(C)CC[C@@H]12 | 101 | > 1180 | 1.8 | 57.4 | 7.1 | 14.2 |  |
| COc1cc(/C=C/C(=O)O[C@H]2CC[C@]3(C)[C@H]4C(=O)C=C5[C@@H]6C[C@@](C)(C(=O)O)CC[C@]6(C)CC[C@@]5(C)[C@]4(C)CC[C@H]3C2(C)C)cc(OC)c1OC | > 1160 | 232 |  | > 1160 | >9.7 | 120 | > 5 |
| CC1(C)[C@@H](O)CC[C@]2(C)[C@H]3C(=O)C=C4[C@@H]5C[C@@](C)(C(=O)OCc6cccc(F)c6)CC[C@]5(C)CC[C@@]4(C)[C@]3(C)CC[C@@H]12 | > 1310 | > 1310 | >2.2 | 588 | >67.2 | 19.5 |  |
| CCOC(=O)CCCOC(=O)[C@@]1(C)CC[C@]2(C)CC[C@]3(C)C(=CC(=O)[C@@H]4[C@@]5(C)CC[C@H](O)C(C)(C)[C@@H]5CC[C@]43C)[C@@H]2C1 | 53.3 | 56.8 | 1.4 | 38.2 | 1.7 | 30.9 |  |
| CC1(C)[C@@H](O)CC[C@]2(C)[C@H]3C(=O)C=C4[C@@H]5C[C@@](C)(C(=O)OCc6ccccc6C#N)CC[C@]5(C)CC[C@@]4(C)[C@]3(C)CC[C@@H]12 | > 1540 | > 1540 |  | > 1540 | >7.9 | 195 |  |
| CC1(C)[C@@H](O)CC[C@]2(C)[C@H]3CC=C4[C@@H]5C[C@@](C)(C(=O)O)CC[C@]5(C)CC[C@@]4(C)[C@]3(C)CC[C@@H]12 | 162 | > 1370 | 3.3 | 48.7 | 3.4 | 47 |  |
| CC1(C)[C@@H](O)CC[C@]2(C)[C@H]3C(=O)C=C4[C@@H]5C[C@@](C)(C(=O)OCc6ccccc6)CC[C@]5(C)CC[C@@]4(C)[C@]3(C)CC[C@@H]12 | 2010 | > 2010 |  | > 2010 | 13.1 | 153 |  |
| CC1(C)[C@@H](O)CC[C@]2(C)[C@H]3C(=O)C=C4[C@@H]5C[C@@](C)(C(=O)OCc6cccc7cccnc67)CC[C@]5(C)CC[C@@]4(C)[C@]3(C)CC[C@@H]12 | > 1700 | > 1700 |  | > 1700 | >111 | 15.3 |  |
| Cc1nc(COC(=O)[C@@]2(C)CC[C@]3(C)CC[C@]4(C)C(=CC(=O)[C@@H]5[C@@]6(C)CC[C@H](O)C(C)(C)[C@@H]6CC[C@]54C)[C@@H]3C2)cs1 | 37.2 | > 1480 | 1 | 36.3 | 4.1 | 9.08 |  |
| CC1(C)[C@@H](O)CC[C@]2(C)[C@H]3C(=O)C=C4[C@@H]5C[C@@](C)(C(=O)OCc6ccc(S(C)(=O)=O)cc6)CC[C@]5(C)CC[C@@]4(C)[C@]3(C)CC[C@@H]12 | 1030 | > 1210 | 18.8 | 54.4 | 48.3 | 21.2 |  |
| CC1(C)[C@@H](O)CC[C@]2(C)[C@H]3C(=O)C=C4[C@@H]5C[C@@](C)(C(=O)OCc6ccc(OC(F)(F)F)cc6)CC[C@]5(C)CC[C@@]4(C)[C@]3(C)CC[C@@H]12 | > 1130 | > 1130 |  | > 1130 | >7.1 | 160 |  |
| CC1(C)[C@@H](O)CC[C@]2(C)[C@H]3C(=O)C=C4[C@@H]5C[C@@](C)(C(=O)OCCCCCCCCO)CC[C@]5(C)CC[C@@]4(C)[C@]3(C)CC[C@@H]12 | 157 | > 1390 | 1.1 | 145 | 11.9 | 13.2 |  |
| CC1(C)[C@@H](O)CC[C@]2(C)[C@H]3C(=O)C=C4[C@@H]5C[C@@](C)(C(=O)OCc6ccc([N+](=O)[O-])cc6)CC[C@]5(C)CC[C@@]4(C)[C@]3(C)CC[C@@H]12 | > 1330 | > 1330 | >2.2 | 606 | >149.2 | 8.9 |  |
| CCC(=O)O[C@H]1CC[C@]2(C)[C@H]3C(=O)C=C4[C@@H]5C[C@@](C)(C(=O)O)CC[C@]5(C)CC[C@@]4(C)[C@]3(C)CC[C@H]2C1(C)C [GLYCYRRHETINIC ACID PROPIONATE] | 99.6 | 49.2 |  | 1360 | 2.2 | 44.4 | 2 |
| CC1(C)[C@@H](O)CC[C@]2(C)[C@H]3CC=C4[C@@H]5C[C@@](C)(C(=O)OCC(N)=O)CC[C@]5(C)CC[C@@]4(C)[C@]3(C)CC[C@@H]12 | 472 | > 1110 | 1.4 | 347 | 7.3 | 64.9 |  |
| CC1(C)[C@@H](O)CC[C@]2(C)[C@H]3C(=O)C=C4[C@@H]5C[C@@](C)(C(=O)OC6CCC6)CC[C@]5(C)CC[C@@]4(C)[C@]3(C)CC[C@@H]12 | 742 | > 1810 |  | 810 | 8.3 | 89.5 |  |
| CC1(C)[C@@H](O)CC[C@]2(C)[C@H]3C(=O)C=C4[C@@H]5C[C@@](C)(C(=O)OCCCBr)CC[C@]5(C)CC[C@@]4(C)[C@]3(C)CC[C@@H]12 | 160 | > 1390 |  | > 1390 | 5.6 | 28.6 |  |
| CC1(C)[C@@H](O)CC[C@]2(C)[C@H]3C(=O)C=C4[C@@H]5C[C@@](C)(C(=O)OCc6cccnc6)CC[C@]5(C)CC[C@@]4(C)[C@]3(C)CC[C@@H]12 | 321 | > 1360 |  | 1070 | 1.9 | 171 |  |
| C[C@H](Cn1cnc2c(N)ncnc21)OCP(=O)(O)O [TENOFOVIR ANHYDROUS] | > 1760 |  | >1.2 |  | >1973.4 | 0.89 | >1.4 |
| CCCC(=O)O[C@H]1CC[C@]2(C)[C@H]3C(=O)C=C4[C@@H]5C[C@@](C)(C(=O)O)CC[C@]5(C)CC[C@@]4(C)[C@]3(C)CC[C@H]2C1(C)C | 119 | 37 |  | 370 | 2.5 | 48.2 | 3.2 |
| CC1(C)[C@@H](O)CC[C@]2(C)[C@H]3C(=O)C=C4[C@@H]5C[C@@](C)(C(=O)O)CC[C@]5(C)CC[C@@]4(C)[C@]3(C)CC[C@@H]12 [ENOXOLONE] | 55.1 | 130 | 2.6 | 20.9 | 1.4 | 39.3 |  |
| CCOC(=O)COC(=O)[C@@]1(C)CC[C@]2(C)CC[C@]3(C)C(=CC(=O)[C@@H]4[C@@]5(C)CC[C@H](O)C(C)(C)[C@@H]5CC[C@]43C)[C@@H]2C1 | > 1200 | > 1200 |  | > 1200 | >8.7 | 139 |  |
| CC1(C)[C@@H](O)CC[C@]2(C)[C@H]3C(=O)C=C4[C@@H]5C[C@@](C)(C(=O)OCc6ccc(-n7cccn7)cc6)CC[C@]5(C)CC[C@@]4(C)[C@]3(C)CC[C@@H]12 | 1990 | > 2060 | 2.1 | 927 | 83.6 | 23.7 |  |
| CC1(C)[C@@H](O)CC[C@]2(C)[C@H]3C(=O)C=C4[C@@H]5C[C@@](C)(C(=O)OCC(N)=O)CC[C@]5(C)CC[C@@]4(C)[C@]3(C)CC[C@@H]12 | 55.3 | > 1120 | 1.4 | 40 | 1.9 | 28.8 |  |
| CC1(C)C(=O)CC[C@]2(C)[C@H]3C(=O)C=C4[C@@H]5C[C@@](C)(C(=O)O)CC[C@]5(C)CC[C@@]4(C)[C@]3(C)CC[C@@H]12 | 467 | > 467 | 1.1 | 433 | 2.5 | 189 |  |
| COc1cc(/C=C/C(=O)O[C@H]2CC[C@]3(C)[C@H]4CC=C5[C@@H]6C[C@@](C)(C(=O)OCC(N)=O)CC[C@]6(C)CC[C@@]5(C)[C@]4(C)CC[C@H]3C2(C)C)cc(OC)c1OC | > 481 | 252 | >2.1 | 230 |  | > 120 | >1.9 |
| CC1(C)[C@@H](O)CC[C@]2(C)[C@H]3C(=O)C=C4[C@@H]5C[C@@](C)(C(=O)OCc6ccc(I)cc6)CC[C@]5(C)CC[C@@]4(C)[C@]3(C)CC[C@@H]12 | > 986 | > 986 |  | > 986 | >172.6 | 5.71 |  |
